Calls of active or inactive are those of the source. The calls are words filed in the database; no cut-off is given here.
What was measured:
[1] = Antagonist activity at PKA in human CD3-positive T cells assessed as inhibition of cell proliferation after 72 hrs by [H]thymidine incorporation assay relative to (RP)-8-Br-cAMPS; type: functional
[2] = Cytotoxicity against human CD3-positive T cells assessed as [H]thymidine incorporation after 72 hrs by beta scintillation counting; type: cell-based; settings: t-cell
T-cell [3] = assay: Induction of PKA activation in human CD3-positive T cells assessed as increase of cell proliferation after 72 hrs by [H]thymidine incorporation assay; type: cell-based
T-cell [4] = assay: Antagonist activity at PKA in human CD3-positive T cells assessed as inhibition of cell proliferation after 72 hrs by [H]thymidine incorporation assay; type: functional, cell-based
T-cell [5] = assay: Induction of PKA activation in human CD3-positive T cells assessed as increase of cell proliferation after 72 hrs by [H]thymidine incorporation assay relative to (SP)-8-Br-cAMPS; type: cell-based

Compound | Ratio [1] | Activity [2] | Activity (T-cell [3]) | Inhibition of cell proliferation (active/not active) (T-cell [4]) | Ratio (T-cell [5])
CCCNc1ncnc2c1nc(-c1ccco1)n2[C@@H]1O[C@@H]2COP(=O)(S)O[C@H]2[C@H]1O (stereo not given in full) | 0.24 | Non-toxic | Active | Active | 
CCCCNc1ncnc2c1nc(-c1ccco1)n2[C@@H]1O[C@@H]2COP(=O)(S)O[C@H]2[C@H]1O (stereo not given in full) | 0.53 | Non-toxic | Active | Active | 
O=P1([S-])OC[C@H]2O[C@@H](n3c(-c4ccco4)nc4c(NCc5ccccc5)ncnc43)[C@H](O)[C@@H]2O1.[Na+] (stereo not given in full) |  | Non-toxic | inactive | inactive | 0.99
CNc1ncnc2c1nc(-c1ccco1)n2[C@@H]1O[C@@H]2COP(=O)([S-])O[C@H]2[C@H]1O.[Na+] (stereo not given in full) | 0.2 | Non-toxic | Active | Active | 
CN(C)c1ncnc2c1nc(-c1ccco1)n2[C@@H]1O[C@@H]2COP(=O)([S-])O[C@H]2[C@H]1O.[Na+] (stereo not given in full) | 0.1 | Non-toxic | Active | inactive | 
